In US20050182036A1, “Medicinal composition containing an HMG-CoA reductase inhibitor” (SANKYO COMPANY, LIMITED, priority 2002, published 2005):

What was measured:
Type in all cases: in vivo
[1] = test system: blood concentration of total nitric oxides (NOx); assay: Blood total nitric oxides (NOx) level in Beagle dogs after 11-day oral administration, NO3- + NO2- by HPLC; conditions: male Beagle dogs, oral once daily, relative to pre-treatment average = 100, mean of 5 dogs
Description: Simvastatin and atorvastatin synthesized at Chemtech Labo., Inc. were used. Gamma-oryzanol was purchased from Riken Vitamin Co., Ltd. and used. Benfotiamine manufactured at Sankyo Co., Ltd. was used.
Male Beagle dogs of 5 months of age were purchased from Covance Research Products Inc. as the test animals and were used after accommodation breeding for approximately 5 months.
The required amount of the test substance calculated based on the body weight of the test animals was weighed and filled in gelatin capsules (TORPAC Inc., 1/2 oz). After filling up, the capsules were placed in a box divided up for every animal and stored under freezing until use.
The capsules filled up with the test substance were orally administered to the test animals once daily via an oral gavage between 9:00-12:30. The test animals were fasted for 2-3 hrs prior to each administration. The administration period was 11 days.
Approximately 10 mL of blood was collected from the cephalic vein of each dog on—14 and—7 day (the 1st and the 2nd week prior to administration) as well as 4, 8, and 12 days after administration. The animals were fasted for approximately 18 hrs before collection of the blood.
The collected blood was placed in a test tube and allowed to stand at room temperature for 30 min to 1 hour. Then the blood was centrifuged (approximately 1,600 g, for 10 min) and the resultant serum obtained was used for assays.
Nitric oxide synthesized by nitric oxide synthase (NOS) is rapidly converted to nitrate ion (NO3^−) and nitrite ion (NO2^−). Blood concentration of total nitric oxides (NOx) is represented by the sum of NO3^− and NO2^− assayed by HPLC.
Relative values of blood concentration of total nitric oxides (NOx) in animals treated with each dose of simvastatin or atorvastatin calcium, gamma-oryzanol, and benfotiamine alone as well as their medicinal compositions as described above were calculated against each converted average value calculated from that determined 2 weeks and one week before treatment into 100.

[2] = Blood total cholesterol level in Beagle dogs after 11-day oral administration, enzymatic assay; conditions: male Beagle dogs, oral once daily, relative to pre-treatment average = 100, mean of 5 dogs, mg/Kg: gamma-oryzanol 100, simvastatin 1
Description: (§1) Simvastatin and atorvastatin synthesized at Chemtech Labo., Inc. were used. Gamma-oryzanol was purchased from Riken Vitamin Co., Ltd. and used. Benfotiamine manufactured at Sankyo Co., Ltd. was used. Male Beagle dogs of 5 months of age were purchased from Covance Research Products Inc. as the test animals and were used after accommodation breeding for approximately 5 months. The required amount of the test substance calculated based on the body weight of the test animals was weighed and filled in gelatin capsules (TORPAC Inc., 1/2 oz). After filling up, the capsules were placed in a box divided up for every animal and stored under freezing until use. The capsules filled up with the test substance were orally administered to the test animals once daily via an oral gavage between 9:00-12:30. The test animals were fasted for 2-3 hrs prior to each administration. The administration period was 11 days. […] The animals were fasted for approximately 18 hrs before collection of the blood. […] In addition, total cholesterol content was assayed by enzymatic assay method while HDL, LDL, and triglyceride were determined by homogeneous method, chemically modified method, and enzymatic techniques, respectively. ALP was assayed by Bessey-Lowry method. Clinical Laboratory System (TBA-120FR, Toshiba Medical Systems Corporation) was used in all of these determinations. […] The values indicate average results calculated from 5 dogs per group.

[3] = Atherosclerosis index (LDL/HDL) in Beagle dogs after 11-day oral administration; conditions: male Beagle dogs, oral once daily, relative to pre-treatment average = 100, mean of 5 dogs, mg/Kg: gamma-oryzanol 100, simvastatin 1
Description: as §1

[4] = Blood LDL level in Beagle dogs after 11-day oral administration; conditions: male Beagle dogs, oral once daily, relative to pre-treatment average = 100, mean of 5 dogs, mg/Kg: gamma-oryzanol 100, simvastatin 1
Description: as §1

[5] = 4 Days after treatment, mg/Kg: benfotiamine 50, simvastatin 1, atorvastatin calcium 2
[6] = 8 Days after treatment, mg/Kg: benfotiamine 50, simvastatin 1, atorvastatin calcium 2
[7] = 12 Days after treatment, mg/Kg: benfotiamine 50, simvastatin 1, atorvastatin calcium 2

| Compound | Changes in blood NOx levels (%) [1, 5] [%] | Changes in blood NOx levels (%) ([1]; 4 Days after treatment, mg/Kg: gamma-oryzanol 100, simvastatin 1) | Changes in blood NOx levels (%) [1, 6] [%] | Changes in blood NOx levels (%) ([1]; 8 Days after treatment, mg/Kg: gamma-oryzanol 100, simvastatin 1) | Changes in blood NOx levels (%) [1, 7] [%] | Changes in blood NOx levels (%) ([1]; 12 Days after treatment, mg/Kg: gamma-oryzanol 100, simvastatin 1) | Changes in blood total cholesterol levels (%) ([2]; 4 Days after treatment) | Changes in blood total cholesterol levels (%) ([2]; 8 Days after treatment) | Changes in blood total cholesterol levels (%) ([2]; 12 Days after treatment) | Changes in atherosclerosis index (LDL/HDL) (%) ([3]; 4 Days after treatment) | Changes in atherosclerosis index (LDL/HDL) (%) ([3]; 8 Days after treatment) | Changes in atherosclerosis index (LDL/HDL) (%) ([3]; 12 Days after treatment) | Changes in blood LDL levels (%) ([4]; 4 Days after treatment) | Changes in blood LDL levels (%) ([4]; 8 Days after treatment) | Changes in blood LDL levels (%) ([4]; 12 Days after treatment) |
| --- | --- | --- | --- | --- | --- | --- | --- | --- | --- | --- | --- | --- | --- | --- | --- |
| CCC(C)(C)C(=O)O[C@H]1C[C@@H](C)C=C2C=C[C@H](C)[C@H](CC[C@@H]3C[C@@H](O)CC(=O)O3)[C@H]21 [Simvastatin, (+)-(1S,3R,7S,8S,8aR)-1,2,3,7,8,8a-hexahydro-3,7-dimethyl-8-[2-[ (2R,4R)-tetrahydro-4-hydroxy-6-oxo-2H-pyran-2-yl]ethyl]-1-naphthyl 2,2-dimethylbutyrate] | 101.6 | 101.6 | 85.5 | 85.5 | 121.9 | 121.9 | 94.8 | 94.1 | 92.4 | 86.6 | 93.8 | 86.3 | 83.9 | 90.4 | 81.3 |
| C/C(=C(\CCOP(=O)(O)O)SC(=O)c1ccccc1)N(C=O)Cc1cnc(C)nc1N [Benfotiamine] | 96.4 |  | 91.6 |  | 107.1 |  |  |  |  |  |  |  |  |  |  |
| CC(C)c1c(C(=O)Nc2ccccc2)c(-c2ccccc2)c(-c2ccc(F)cc2)n1CC[C@H](O)C[C@@H](O)CC(=O)O [Atorvastatin calcium, (3R,5S)-7-[2-(4-fluorophenyl)-5-(1-methylethyl)-3-phenyl-4-phenylaminocarbonyl-1H-pyrrol-1-yl]-3,5-dihydroxyheptanoic acid] | 117.7 |  | 114.1 |  | 117.9 |  |  |  |  |  |  |  |  |  |  |
